Laboratory results reported in BindingDB's records for doi:10.7270/Q2B856KG (Vanderbilt Screening Center For Gpcrs, Ion Channels and …, 2010).

Biological target: Voltage-dependent T-type calcium channel subunit alpha-1H (Homo sapiens, UniProt O95180)
Assay: PubChem AID 489005

Sequence of Voltage-dependent T-type calcium channel subunit alpha-1H (O95180 whole entry): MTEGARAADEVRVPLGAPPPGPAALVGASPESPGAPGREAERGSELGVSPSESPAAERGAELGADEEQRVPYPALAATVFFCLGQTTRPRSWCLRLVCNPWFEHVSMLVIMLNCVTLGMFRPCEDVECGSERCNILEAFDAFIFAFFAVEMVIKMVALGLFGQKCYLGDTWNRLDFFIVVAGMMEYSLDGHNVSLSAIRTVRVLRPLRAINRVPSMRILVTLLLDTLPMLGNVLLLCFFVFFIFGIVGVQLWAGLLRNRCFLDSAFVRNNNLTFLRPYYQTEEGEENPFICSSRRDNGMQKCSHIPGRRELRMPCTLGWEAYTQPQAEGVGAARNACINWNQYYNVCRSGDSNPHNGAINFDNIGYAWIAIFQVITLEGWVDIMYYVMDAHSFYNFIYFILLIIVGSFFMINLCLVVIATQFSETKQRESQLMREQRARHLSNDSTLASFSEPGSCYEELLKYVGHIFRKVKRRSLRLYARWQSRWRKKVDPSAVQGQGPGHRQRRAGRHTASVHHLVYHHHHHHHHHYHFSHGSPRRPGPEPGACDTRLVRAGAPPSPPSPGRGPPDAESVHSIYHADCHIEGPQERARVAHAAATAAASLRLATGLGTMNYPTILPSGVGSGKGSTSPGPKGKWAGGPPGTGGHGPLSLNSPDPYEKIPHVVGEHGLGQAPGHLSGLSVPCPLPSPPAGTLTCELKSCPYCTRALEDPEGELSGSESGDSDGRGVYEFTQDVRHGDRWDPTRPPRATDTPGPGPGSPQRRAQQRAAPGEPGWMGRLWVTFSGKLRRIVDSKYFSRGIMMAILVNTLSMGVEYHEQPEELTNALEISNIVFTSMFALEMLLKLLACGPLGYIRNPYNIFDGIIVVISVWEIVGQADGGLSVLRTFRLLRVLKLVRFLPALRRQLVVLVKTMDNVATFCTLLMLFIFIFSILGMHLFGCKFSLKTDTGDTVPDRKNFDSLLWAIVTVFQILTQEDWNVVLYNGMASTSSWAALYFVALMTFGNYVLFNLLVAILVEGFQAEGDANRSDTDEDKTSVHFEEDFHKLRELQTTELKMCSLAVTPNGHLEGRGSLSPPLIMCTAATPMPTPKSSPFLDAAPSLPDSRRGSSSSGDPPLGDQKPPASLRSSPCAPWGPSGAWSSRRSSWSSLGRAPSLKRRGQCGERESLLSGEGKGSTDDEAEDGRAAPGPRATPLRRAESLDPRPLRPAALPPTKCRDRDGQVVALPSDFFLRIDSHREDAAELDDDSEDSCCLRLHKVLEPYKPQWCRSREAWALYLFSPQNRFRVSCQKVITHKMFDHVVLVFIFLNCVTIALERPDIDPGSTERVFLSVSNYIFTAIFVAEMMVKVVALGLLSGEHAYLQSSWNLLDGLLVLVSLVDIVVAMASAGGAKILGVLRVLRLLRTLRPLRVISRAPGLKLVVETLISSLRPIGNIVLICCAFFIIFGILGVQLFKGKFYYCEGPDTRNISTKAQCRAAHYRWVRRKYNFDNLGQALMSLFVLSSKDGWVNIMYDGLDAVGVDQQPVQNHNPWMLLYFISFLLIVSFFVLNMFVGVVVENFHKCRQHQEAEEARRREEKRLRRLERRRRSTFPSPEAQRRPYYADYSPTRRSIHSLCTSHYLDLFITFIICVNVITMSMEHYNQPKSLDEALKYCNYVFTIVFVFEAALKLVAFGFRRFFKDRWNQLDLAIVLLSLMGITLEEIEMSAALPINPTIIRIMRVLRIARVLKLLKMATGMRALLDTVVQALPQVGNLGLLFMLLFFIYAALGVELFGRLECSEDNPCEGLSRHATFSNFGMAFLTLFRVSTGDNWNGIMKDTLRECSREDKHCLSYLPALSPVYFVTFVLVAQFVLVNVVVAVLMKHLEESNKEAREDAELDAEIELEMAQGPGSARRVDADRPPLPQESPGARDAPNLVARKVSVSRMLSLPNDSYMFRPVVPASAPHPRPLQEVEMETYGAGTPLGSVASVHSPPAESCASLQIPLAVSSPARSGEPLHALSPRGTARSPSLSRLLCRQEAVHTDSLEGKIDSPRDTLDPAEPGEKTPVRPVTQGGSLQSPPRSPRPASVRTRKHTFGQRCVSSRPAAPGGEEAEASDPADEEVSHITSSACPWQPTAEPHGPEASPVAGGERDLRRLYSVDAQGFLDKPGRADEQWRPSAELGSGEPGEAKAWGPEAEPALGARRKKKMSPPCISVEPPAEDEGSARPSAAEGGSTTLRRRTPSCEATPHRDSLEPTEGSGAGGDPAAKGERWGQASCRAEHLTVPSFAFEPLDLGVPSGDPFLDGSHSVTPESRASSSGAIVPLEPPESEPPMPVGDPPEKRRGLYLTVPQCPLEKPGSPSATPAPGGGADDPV

EC50	Compound
1.6 µM	CCN(CC)S(=O)(=O)c1ccc2c(c1)C(N=O)c1cc(S(=O)(=O)N(CC)CC)ccc1-2 [N2,N2,N7,N7-tetraethyl-9-hydroxyimino-fluorene-2,7-disulfonamide]
3.78 µM	Cc1ccc(-c2csc(NC(=O)c3cccc(-n4c(O)ccc4O)c3)n2)o1 [SMR000018545]
613 µM	Oc1cc(SCCc2nc3ccccc3[nH]2)c(O)n1-c1ccc(Cl)cc1 [SMR000199589]
3.26 µM	CC(CC(=O)c1ccncc1)=Nc1ccccc1O
8.16 µM	COc1ccc(C(C(=O)C(O)c2c[nH]c3ccccc23)N2CCN(c3ccccc3)CC2)cc1 (stereo unspecified) [MLS000053208]
3 µM	CCCCCCC1=Cc2c/c(=C3/NN=C(c4ccccc4)O3)c(=O)oc2=CC1=O [MLS000068623]
1.52 µM	CC1CCN(S(=O)(=O)c2ccc(N=NC(C#N)C#N)cc2)CC1 [SMR000162322]
6.84 µM	COc1cccc(N2CCN(c3cc(O)n(-c4ccc(Cl)c(Cl)c4)c3O)CC2)c1 [1-(3,4-dichlorophenyl)-3-[4-(3-methoxyphenyl)-1-piperazinyl]pyrrolidine-2,5-dione]
12.3 µM	O=NC1c2cc(S(=O)(=O)N3CCCCC3)ccc2-c2ccc(S(=O)(=O)N3CCCCC3)cc21 [2,7-Bis-(piperidine-1-sulfonyl)-fluoren-9-one oxime]
14.8 µM	CC(C)CC(C(=O)C(C#N)c1nc2ccccc2[nH]1)N1C(=O)c2ccccc2C1=O (stereo unspecified) [MLS000109709]
2.11 µM	O=NC(c1ccc(Cl)cc1Cl)c1ncc(C(F)(F)F)cc1Cl (stereo unspecified) [MLS000540015]
